“Also recorded” adds a separate entry of the source.
Test system: NHBE cells
Test: Inhibition of Arp2/3 - normal human bronchial epithelial cell (NHBE) infection model with GFP-expressing NTHI
Assay type: cell-based
Conditions: 200 μM CK-636, 24 or 48 hours
Protocol: Inhibition of Arp2/3—Normal human bronchial epithelial cell (NHBE) infection model: NHBE cells (Lonza, Walkersville, Md.) were seeded into 24-well plates containing sterile coverslips and grown in Bronchial Epithelial Cell Growth Medium (BEGM; Lonza, Walkersville, Md.) at 37° C. in a 5% CO2 atmosphere to near confluency. […] The next morning the colonies were re-suspended in brain heart infusion broth supplemented with 2 μg/ml heme and 2 μg/ml β-NAD (sBHI) and grown at 37° C. with shaking at 180 rpm until the cells were in mid-log phase (˜5 generations). Prior to infection, the BEGM was removed from the NHBE cells and replaced with BEGM that contained either 200 μM CK-636 (Sigma-Aldrich, St. Louis, Mo.), an inhibitor of Arp2/3 function, or 0.2% DMSO, the vehicle for CK-636. Strain 86-028NP(pGM1.1) was then added to the NHBE cells at a multiplicity of infection of 50 bacteria to one NHBE cell and incubated at 37° C. in a 5% CO2 atmosphere for one hour. The NHBE cells were then washed twice with DPBS before being placed back in BEGM that contained either 200 μM CK-636 or 0.2% DMSO. Cells were incubated at 37° C. in a 5% CO2 atmosphere for 24 or 48 hours. At each time point, cells were stained with WGA-Alexa Fluor 594, fixed in 4% paraformaldehyde (Electron Microscopy Sciences, Hatfield, Pa.) in DPBS, permeabilized with 0.1% Triton X-100 then stained with phalloidin-Alexa Fluor 350. […]

Cc1[nH]c2ccccc2c1CCNC(=O)c1cccs1 [CK-636]
NTHI invasion / bacterial uptake into epithelial cells (fluorescent microscopy) (NTHI strain 86-028NP(pGM1.1), MOI 50, versus 0.2% DMSO vehicle): reduced NTHI invasion into epithelial cells; also recorded: increase in the number of extracellular bacteria indicating that bacterial uptake was reduced | actin structure of NHBE cells (phalloidin staining, fluorescent microscopy) (NTHI-infected NHBE cells): gross morphological changes in actin structure

From patent publication US10000577B2, “Treatment of otitis media” (Research Institute at Nationwide Children's Hospital, priority 2015, dated 2018)
